{"source": "patent US8084018B2", "about": "“Methods for imaging dopamine transporter level” (Alseres Pharmaceuticals, Inc., priority 2007, dated 2011)", "biological_target": "T1, dopamine transporter (Homo sapiens, UniProt Q01959)", "T1 construct": "dynamic SPECT in Parkinson's subjects and similarly aged healthy control subjects; from tissue; host or cells: striatum (caudate and putamen) of living subjects, imaged in vivo", "T1 sequence (Q01959 whole entry)": "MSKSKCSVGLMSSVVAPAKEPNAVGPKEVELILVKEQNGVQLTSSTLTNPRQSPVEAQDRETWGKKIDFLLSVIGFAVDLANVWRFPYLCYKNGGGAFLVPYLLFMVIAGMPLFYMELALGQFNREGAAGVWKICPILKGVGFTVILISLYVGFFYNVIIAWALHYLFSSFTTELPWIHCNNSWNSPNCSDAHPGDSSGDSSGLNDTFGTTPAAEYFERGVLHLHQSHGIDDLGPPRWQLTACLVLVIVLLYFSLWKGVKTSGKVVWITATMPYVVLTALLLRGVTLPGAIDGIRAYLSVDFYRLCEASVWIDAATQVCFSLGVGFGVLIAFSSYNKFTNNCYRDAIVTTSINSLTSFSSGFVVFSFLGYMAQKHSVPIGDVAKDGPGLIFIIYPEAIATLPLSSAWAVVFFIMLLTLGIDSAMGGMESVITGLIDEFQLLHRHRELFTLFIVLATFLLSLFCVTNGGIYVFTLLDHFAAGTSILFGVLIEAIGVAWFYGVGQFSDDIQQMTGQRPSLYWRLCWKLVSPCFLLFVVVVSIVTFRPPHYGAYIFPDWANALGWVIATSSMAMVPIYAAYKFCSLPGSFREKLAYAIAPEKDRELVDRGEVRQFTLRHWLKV", "assay": "123I Altropane dynamic SPECT imaging of striatal dopamine transporter in Parkinson's disease and healthy control subjects", "type": "in vivo", "details": "for Mean % test/retest difference: 15 PD subjects; for Total striatal binding ratio, Ratio (3-6): individual PD scans (paired test/retest), mean of scans 3-6, about 30 min from about 15 min post injection; for Peak Striatal:Occipital Ratio (peak SBR): single scan with highest uptake, 8 mCi i.v.", "excerpt": "The following example summarizes single photon emission computed tomographic (SPECT) image acquisition, analysis methods and results for Parkinson's disease research participants and healthy controls participating in an ^123I Altropane SPECT imaging study. The experiment is an open label study evaluating time-activity curves and striatal dopamine transporter occupancy over the first hour post injection of ^123I Altropane using temporally well-resolved dynamic SPECT in Parkinson's subjects and similarly aged healthy control subjects. In addition, for the PD subjects, a second injection and scan is performed on each subject on a separate test days to evaluate the test/retest reproducibility data for both visual and quantitative analyses.\nFifteen idiopathic Parkinson's disease subjects are recruited through local advertising and word-of-mouth for enrollment in the study. Imaging is performed at Molecular NeuroImaging, LLC in New Haven, Conn., USA. ^123I Altropane is studied under the auspices of a physician-sponsored IND # 76,024, Dr. J. Seibyl physician sponsor using test article provided by MDS Nordion, Inc (Vancouver, BC, Canada). All subjects are provided informed consent prior to any study procedures. All fifteen subjects completed two separate injection and SPECT scan sessions with approximately 296 mBq (8 mCi) of ^123I Altropane. Subjects undergo motor ratings using the Unified Parkinson's Disease Rating Scale (UPDRS) following overnight period without anti-Parkinson medication administered by a movement disorder specialist. No PD subjects are terminated prior to achieving the study endpoint.\nTwelve healthy control subjects are recruited for participation in a single scan session with ^123I Altropane using the identical SPECT image acquisition protocol as the PD subjects. Healthy subjects are evaluated by a movement disorder specialist to confirm the absence of neurologic illness.\nSPECT scans are acquired for 60 minutes following the intravenous injection with 296 mBq (8.0 mCi) of ^123I Altropane. A series of dynamic SPECT scans are obtained as five scans at 6 minutes per acquisition followed by three scans at 10 minutes per acquisition. The subject remain in the camera for the duration of the acquisition. Each SPECT study is acquired on a Philips PRISM 3000XP triple-headed SPECT camera (Cleveland, Ohio, USA) fitted with fan-beam collimators. Each head rotates 360 degrees, sampling every 3 degrees for a total of 120 raw projection images per head. Projection data were collected in a 128×128 matrix within a symmetric energy window centered at 159 kEv (+/−10%).\nData are re-constructed using filtered back projection and a simple ramp filter followed by a post hoc (3-D) standardized low pass filter. Attenuation correction was performed applying a Chang 0 correction and a mu of 0.11 cm^−1 using a standard or custom automated software package. Regions of interest (ROIs) are placed in the 3-head data with individual ROI sampling of the left and right caudate and putamen and an occipital background region. The ROIs were then applied to all images in the injection session (total of 24=8 time points×3 head conditions (1, 1&2, 1&2&3). To check for head movement within each scan session, five external skin fiducial markers containing 1 μCi of ^123I were place along the canthomeatal line (2 right side, 3 left side) prior to each SPECT scan. Total counts within the ROI, total volume, and count density (counts/voxel) were extracted from each scan and logged in a data spreadsheet for determination of striatal uptake ratios (SBR) defined as the density of counts (counts per voxel per minute) in the striatal region divided by the density of counts in the occipital background region. The mean striatal SBR scores were calculated as the mean of the left and right caudate and putamen SBR scores. Since sampling in striatal subregions used the identical size ROI, there was equal contribution from left and right caudate and putamen to the mean SBR. […]", "note": "Values joined by “and” are separate entries in the source; they are usually repeats but may differ in a detail not shown here. Identical values can stand only once.", "data": [{"smiles": "COC(=O)C1C(c2ccc(F)cc2)CC2CCC1N2C/C=C/I", "note": "(stereo not drawn) [123I Altropane, 2β-carbomethoxy-3β-(4′-flurophenyl)-N-(3-iodo-E-allyl) nortropane]", "values": [{"measurement": "Mean % test/retest difference", "setting": "1 head", "result": 4.94, "unit": "%"}, {"measurement": "Mean % test/retest difference", "setting": "2 heads", "result": 5.11, "unit": "%"}, {"measurement": "Mean % test/retest difference", "setting": "3 heads", "result": 5.14, "unit": "%"}, {"measurement": "time post injection of relative stability of binding ratios", "setting": "a PD and a control subject, FIG. 3", "result": "about 15 minutes"}, {"measurement": "time post injection by which washout rates from striatum and occipital background are similar (stable striatal binding ratio)", "setting": "all subjects", "result": "20 to 30", "unit": "min"}, {"measurement": "time of peak striatal count densities post-injection", "setting": "controls and PD subjects, bolus injection", "result": 10, "unit": "min"}, {"measurement": "Total striatal binding ratio, Ratio (3-6)", "setting": "1 head", "result": "1.29 (4×) and 1.23 and 1.30 (2×) and 1.26 (3×) and 1.25 (3×) and 1.22 (2×) and 1.37 (2×) and 1.40 and 1.48 and 1.20 (2×) and 1.16 and 1.32 and 1.35 and 1.21 (2×) and 1.12 and 1.28 and 1.17 and 1.24"}, {"measurement": "Total striatal binding ratio, Ratio (3-6)", "setting": "2 heads", "result": "1.29 and 1.27 (3×) and 1.35 and 1.37 and 1.31 and 1.32 (4×) and 1.30 and 1.36 and 1.43 and 1.47 and 1.60 and 1.25 and 1.21 and 1.19 and 1.38 (2×) and 1.40 and 1.24 (2×) and 1.12 and 1.26 and 1.33 (2×) and 1.20 and 1.45"}, {"measurement": "Total striatal binding ratio, Ratio (3-6)", "setting": "3 heads", "result": "1.32 and 1.30 (2×) and 1.39 and 1.41 and 1.33 and 1.36 (2×) and 1.35 (2×) and 1.38 and 1.45 and 1.56 and 1.70 and 1.37 (2×) and 1.28 and 1.23 and 1.20 and 1.42 (2×) and 1.44 and 1.26 and 1.15 and 1.29 and 1.31 and 1.22 and 1.50 and 1.40 and 1.27"}, {"measurement": "Peak Striatal:Occipital Ratio (peak SBR)", "setting": "individual PD subjects, 1 head reconstruction", "result": "1.29 (2×) and 1.24 (2×) and 1.22 and 1.35 and 1.41 (2×) and 1.52 and 1.43 and 1.26 (2×) and 1.32 and 1.33 (2×)"}, {"measurement": "Peak Striatal:Occipital Ratio (peak SBR)", "setting": "individual PD subjects, 2 head reconstruction", "result": "1.28 (2×) and 1.27 (2×) and 1.25 and 1.41 and 1.46 and 1.66 and 1.53 and 1.26 and 1.36 and 1.32 and 1.43 and 1.37 and 1.39"}, {"measurement": "Peak Striatal:Occipital Ratio (peak SBR)", "setting": "individual PD subjects, 3 head reconstruction", "result": "1.30 (2×) and 1.25 and 1.44 (2×) and 1.74 and 1.60 and 1.33 and 1.34 and 1.45 (2×) and 1.35 and 1.39 and 1.28 and 1.43"}, {"measurement": "Peak Striatal:Occipital Ratio (peak SBR)", "setting": "individual healthy controls, 1 head reconstruction", "result": "1.49 and 1.57 and 1.79 and 1.47 and 1.56 and 1.63 and 1.64 and 1.86 and 1.52 and 1.50 and 1.66 and 1.51"}, {"measurement": "Peak Striatal:Occipital Ratio (peak SBR)", "setting": "individual healthy controls, 2 head reconstruction", "result": "1.66 and 1.67 and 1.95 and 1.62 and 1.68 and 1.79 and 1.77 and 2.10 and 1.59 and 1.55 and 1.84 and 1.61"}, {"measurement": "Peak Striatal:Occipital Ratio (peak SBR)", "setting": "individual healthy controls, 3 head reconstruction", "result": "1.81 (2×) and 1.79 and 2.06 and 1.69 and 1.90 and 1.93 and 2.30 and 1.71 and 1.68 and 1.86 and 1.77"}, {"measurement": "mean SBR (peak Striatal:Occipital Ratio)", "setting": "mean of 12 healthy controls, 1 head", "result": 1.60}, {"measurement": "mean SBR (peak Striatal:Occipital Ratio)", "setting": "mean of 12 healthy controls, 2 head", "result": 1.74}, {"measurement": "mean SBR (peak Striatal:Occipital Ratio)", "setting": "mean of 12 healthy controls, 3 head", "result": 1.86}, {"measurement": "mean SBR (peak Striatal:Occipital Ratio)", "setting": "mean of 15 PD subjects, 1 head", "result": 1.33}, {"measurement": "mean SBR (peak Striatal:Occipital Ratio)", "setting": "mean of 15 PD subjects, 2 head", "result": 1.37}, {"measurement": "mean SBR (peak Striatal:Occipital Ratio)", "setting": "mean of 15 PD subjects, 3 head", "result": 1.41}, {"measurement": "elimination from brain", "setting": "most subjects, striatal and occipital regions", "result": "rapid elimination"}, {"measurement": "time of peak SBR post injection", "setting": "one and two head scenarios", "result": "≥ 15", "unit": "min"}]}]}
